{"source": "patent US10674699B2", "about": "“Endophyte enhanced seedlings with increased pest tolerance” (priority 2006, dated 2020)", "key": {"Aspergillus fumigatus": {"system": "Aspergillus fumigatus", "experiment": "Fungal growth in budmoth test vials with dietary rugulosin", "format": "cell-based", "conditions": "A. fumigatus-contaminated larvae; few vials with fungal growth at 100 and 150 μM", "experimental": "Zeiraphera canadensis larvae (spruce budmoth) were collected from the wild near Sussex in mid June. They were immediately put in test vials and tested at rugulosin concentrations of 10, 50, 100 and 150 μM (75 per concentration). After seven days, surviving larvae were frozen and measured.\nMany (60%) succumbed to fungal infections (Aspergillus fumigatus) and other unknown causes over the course of rearing. […] However, using the Wilcoxon matched-pairs signed-ranks test, the larvae fed 100 or 150 μM rugulosin in the diet were lighter than those fed the 10 μM rugulosin and control diets (p<0.10). Because of the high percentage of A. fumigatus-contaminated larvae in the experiment, an unanticipated result was the antifungal activity observed above 50 μM, few vials had fungal growth in the tests at 100 μM and 150 μM rugulosin."}, "[1]": {"system": "C. fumiferana (spruce budworm) larvae", "experiment": "Budworm growth on endophyte-infected nursery trees (mesh bags)", "format": "in vivo, Choristoneura fumiferana", "conditions": "four year old trees, branches above and below 0.5 μg g^−1", "source_text": "disease-free second instar spruce budworm larvae as follows: A set number of budworm were placed by hand on lateral branches with buds and then covered with a mesh screen on both endophyte-positive and negative trees. Temperature recorders were placed in the holding area and the progress monitored until the budworm was not greater than sixth instar. At termination, the insects were collected, frozen for subsequent determinations of head capsule width and frozen weight. Samples were collected for toxin analysis to ensure that there was no misclassification of the trees as to their endophyte status.\nNursery experiments: The tests were conducted at the J.D. Irving, Limited Sussex Tree Nursery in New Brunswick, Canada (45° 43′ N, 65° 31′ W; elevation 21.30 m). In two successive years, several hundred seedlings grown as container stock in mulitpot 67 seedling containers were inoculated with the rugulosin-producing endophyte 5WS22E1 (DAOM 229536; CBS 120377). […]\nTemperature recorders (Hobo Dataloggers, Onset Computer Corporation, Pocasset, Mass.) were placed in the holding area and the progress monitored until the budworms were not older than sixth instars. […] Head capsule widths were determined using a stereo microscope at 40× with ocular and stage micrometers. […]"}, "[2]": {"system": "Choristoneura fumiferana (spruce budworm) larvae", "conditions": "Calhoun et al. 1992; cited from earlier work"}, "[3]": {"system": "mosquito larvae (Aedes albopictus) cell line", "conditions": "Watts et al. 2003; cited from earlier work"}, "mice": {"system": "mice", "conditions": "ip in mice; Ueno et al. 1971; cited from earlier work"}, "rats": {"system": "rats", "conditions": "in rats; Ueno et al. 1971; cited from earlier work"}, "[4]": {"system": "HepG2 cells (human hepatoma cells)", "conditions": "Watts et al. 2003; cited from earlier work"}, "[5]": {"conditions": "Breen et al. 1955; cited from earlier work"}, "spruce budworm larvae": {"system": "spruce budworm larvae", "conditions": "Miller et al. 2002; cited from earlier work"}}}
{"smiles": "Cc1cc(O)c2c(c1)C(=O)[C@]13C(=C2O)C(=O)[C@@H]2[C@H](O)[C@H]1[C@@H]1[C@@H](O)[C@H]3C(=O)C3=C(O)c4c(O)cc(C)cc4C(=O)[C@]312", "note": "[rugulosin]", "values": [{"measurement": "rugulosin concentration above which antifungal activity was observed", "setting": "Aspergillus fumigatus", "value": "above 50 μM"}, {"measurement": "Pearson correlation between rugulosin concentration and budworm weight", "setting": "[1]", "value": "−0.288"}, {"measurement": "toxicity to C. fumiferana larvae in an artificial diet", "setting": "[2]", "value": "toxic"}, {"measurement": "toxicity to cultured cells", "setting": "[3]", "value": "toxic"}, {"measurement": "LD50", "setting": "mice", "value": 55, "unit": "mg kg^−1 BW"}, {"measurement": "LD50", "setting": "rats", "value": 44, "unit": "mg kg^−1 BW"}, {"measurement": "cytotoxicity", "setting": "[4]", "value": "not cytotoxic"}, {"measurement": "antifungal activity", "setting": "[5]", "value": "moderately antifungal"}, {"measurement": "toxicity to C. fumiferana larvae in needles", "setting": "spruce budworm larvae", "value": "toxic"}]}
